Consider 8 compounds from patent US20220153751A1, “BIFUNCTIONAL COMPOUNDS” (BioTheryX, Inc., priority 2018, published 2022).

Assay type in all cases: cell-based
The test system of one assay is IL-6. Description: IL-6 inhibition assay, LPS-induced PBMCs / CD14+ monocytes (Meso Scale). Conditions: 1 h pretreatment, 100 ng/mL LPS 18-24 h. As for the experimental part: (§1) Either frozen primary blood mononuclear cells (PBMCs) or frozen CD14+ mobilized peripheral blood monocytes were purchased from AllCells (PB003F, Normal Peripheral Blood MNC (Alameda, Calif.)). Cells were quick thawed, washed 1-time with RPMI-1640 (10% FBS/1% Pen-Strep) and plated in 96 well plates at 200,000 cells per well. Cells were pretreated with DMSO only or with the indicated compound for 1 h and then induced with 100 ng/mL lipopolysaccharide (LPS) for 18-24 h. The supernatant was analyzed for IL-1β, IL-6, and TNFα, using Meso Scale assay according to manufacturer's protocol. The negative control wells were treated with DMSO.
(§2) In Table 6, the % inhibition values are reported as “A”, “B”, “C”, or “D”. “A” represents a % inhibition value of less than 50% (value <50%). “B” represents a % inhibition value of equal to or more than 50% and less than 70% (50%≤value<70%). “C” represents a % inhibition value of equal to or more than 70% and less than 90% (70%≤value<90%). “D” represents a % inhibition value of equal or more than 90% (value ≥90%). In Table 7, the fold-change values are reported as “A”, “B”, “C”, or “D”. “A” represents a fold-change value of equal to or less than 0.1 (value ≤0.1). “B” represents a fold-change value of more than 0.1 and equal to or less than 0.5 (0.1<value≤0.5). “C” represents a fold-change value of more than 0.5 and equal to or less than 1 (0.5<value≤1). “D” represents a fold-change value of more than 1 (value >1).

For the next assay, the system named is MOLM-13 cells. In words: MOLM-13 cell viability assay (CellTiter-Glo). Conditions: Homo sapiens, MOLM-13, 72 h, 3 days, read-out: MOLM-13 Cell Viability % DMSO at 1 μM. Put shortly:
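MOLM-13 cells at 2500 cells/well were exposed to compound for 3 days at 37 °C. Viability was read by CellTiter-Glo luminescence and expressed as % of DMSO control, binned A (<50%), B (50–<70%), C (70–<90%) or D (≥90%).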
For orientation: ATP-based viability assays read luminescence as a measure of living cells.

In the next assay the target is T1, IKAROS (Homo sapiens, UniProt Q13422+Q96SW2).
T1 construct: endogenous in cells; host or cells: MV-4-11
T1 sequence (Q13422 whole entry): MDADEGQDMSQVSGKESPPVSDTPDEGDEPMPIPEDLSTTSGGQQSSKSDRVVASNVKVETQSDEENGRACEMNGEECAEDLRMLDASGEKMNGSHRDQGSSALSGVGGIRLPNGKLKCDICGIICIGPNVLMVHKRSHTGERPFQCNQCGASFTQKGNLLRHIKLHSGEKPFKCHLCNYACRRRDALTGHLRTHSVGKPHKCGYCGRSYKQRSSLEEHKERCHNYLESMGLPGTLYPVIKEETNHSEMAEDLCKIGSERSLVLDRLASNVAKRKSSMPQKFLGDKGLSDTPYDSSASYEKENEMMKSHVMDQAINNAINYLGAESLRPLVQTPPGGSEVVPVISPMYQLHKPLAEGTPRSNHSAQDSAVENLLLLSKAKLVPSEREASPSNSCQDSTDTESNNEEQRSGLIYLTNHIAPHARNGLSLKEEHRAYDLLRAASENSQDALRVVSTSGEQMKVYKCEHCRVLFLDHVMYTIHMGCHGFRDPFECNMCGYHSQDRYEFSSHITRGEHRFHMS
T1 sequence (Q96SW2 whole entry): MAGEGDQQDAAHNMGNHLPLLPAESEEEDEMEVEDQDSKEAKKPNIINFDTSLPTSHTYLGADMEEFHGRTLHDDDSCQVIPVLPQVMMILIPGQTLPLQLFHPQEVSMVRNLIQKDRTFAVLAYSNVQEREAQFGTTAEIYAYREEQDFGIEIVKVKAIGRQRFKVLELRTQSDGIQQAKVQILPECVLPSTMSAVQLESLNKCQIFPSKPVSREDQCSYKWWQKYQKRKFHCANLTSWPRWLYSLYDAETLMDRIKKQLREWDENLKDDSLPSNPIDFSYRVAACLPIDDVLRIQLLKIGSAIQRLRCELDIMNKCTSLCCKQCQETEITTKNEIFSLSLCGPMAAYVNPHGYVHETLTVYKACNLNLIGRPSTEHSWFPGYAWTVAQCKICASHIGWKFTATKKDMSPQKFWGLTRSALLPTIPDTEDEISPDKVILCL
T1 sequence (Q16531 whole entry partner): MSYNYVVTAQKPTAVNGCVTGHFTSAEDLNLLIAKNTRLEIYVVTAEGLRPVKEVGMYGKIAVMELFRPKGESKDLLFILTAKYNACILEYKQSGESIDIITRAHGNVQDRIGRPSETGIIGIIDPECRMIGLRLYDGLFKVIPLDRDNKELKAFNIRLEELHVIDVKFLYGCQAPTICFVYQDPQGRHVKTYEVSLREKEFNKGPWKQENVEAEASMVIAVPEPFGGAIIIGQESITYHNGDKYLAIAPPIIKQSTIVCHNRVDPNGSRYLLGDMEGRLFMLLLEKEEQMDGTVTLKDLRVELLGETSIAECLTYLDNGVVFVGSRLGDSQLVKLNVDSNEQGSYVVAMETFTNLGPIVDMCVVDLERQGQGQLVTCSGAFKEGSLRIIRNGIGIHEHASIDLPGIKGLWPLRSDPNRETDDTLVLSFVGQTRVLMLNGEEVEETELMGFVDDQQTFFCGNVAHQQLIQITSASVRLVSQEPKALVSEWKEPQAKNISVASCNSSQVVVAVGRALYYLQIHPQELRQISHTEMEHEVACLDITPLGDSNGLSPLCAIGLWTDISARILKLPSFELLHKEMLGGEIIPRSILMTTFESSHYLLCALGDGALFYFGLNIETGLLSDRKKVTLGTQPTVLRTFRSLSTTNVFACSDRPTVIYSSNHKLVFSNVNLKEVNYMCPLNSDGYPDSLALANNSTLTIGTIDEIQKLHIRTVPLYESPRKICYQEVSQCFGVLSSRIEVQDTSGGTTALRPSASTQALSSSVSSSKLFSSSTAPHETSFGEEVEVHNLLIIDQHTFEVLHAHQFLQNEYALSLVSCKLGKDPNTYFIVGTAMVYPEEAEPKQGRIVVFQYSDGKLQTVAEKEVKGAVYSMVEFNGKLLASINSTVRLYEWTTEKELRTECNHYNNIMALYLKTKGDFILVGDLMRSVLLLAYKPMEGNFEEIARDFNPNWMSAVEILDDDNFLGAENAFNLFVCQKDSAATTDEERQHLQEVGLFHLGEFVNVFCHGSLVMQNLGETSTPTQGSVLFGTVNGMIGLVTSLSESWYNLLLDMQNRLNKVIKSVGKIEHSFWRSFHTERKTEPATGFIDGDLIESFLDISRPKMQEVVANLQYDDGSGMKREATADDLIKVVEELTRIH
In words: IKAROS degradation assay (Western blot, MV-4-11 cells). The note with it: MV4-11, 6-8 h. Put shortly:
(§3)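 Reported degradation is grouped into four bands (A below 25%, B 25% to under 50%, C 50% to under 75%, D 75% or more). Treatment lasts 6-8 h against a DMSO control, followed by RIPA extraction and immunoblotting with near-infrared detection.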
In general terms: A western blot detects proteins with antibodies after separation by electrophoresis.

Another assay has as its system TNF-α. Description: TNF-α inhibition assay, LPS-induced PBMCs / CD14+ monocytes (Meso Scale). Conditions: 1 h pretreatment, 100 ng/mL LPS 18-24 h. As for the experimental part:
as §1, §2

The next assay relates to IL-1β. Description: IL-1β inhibition assay, LPS-induced PBMCs / CD14+ monocytes (Meso Scale). Conditions: 1 h pretreatment, 100 ng/mL LPS 18-24 h. As for the experimental part:
as §1, §2

The next assay has as its target T2, CK1α (Homo sapiens, UniProt P48729+Q96SW2).
T2 construct: Whole cell extracts were prepared using RIPA buffer; endogenous in cells; host or cells: MV-4-11
Description: CK1α degradation assay (Western blot, MV-4-11 cells). Conditions: MV4-11, 6-8 h. As for the experimental part:
(§4) MV-4-11 cells were grown in RPMI 1640 media supplemented with 10% fetal bovine serum, streptomycin and penicillin.
(§5) Cells were cultured at approximately 10^6 cells per mL and incubated in DMSO or the indicated compound for 6-8 h. Whole cell extracts were prepared using RIPA buffer according to manufacturer's protocol (Pierce). Briefly, 3×10^6 cells were washed once in PBS, the cell pellets were resuspended in RIPA buffer and allowed to incubate for 15 minutes on ice. Cells debris was removed by centrifugation and the cleared whole cell lysates were transferred to new tubes for further analysis.
(§6) For Western blot analysis, whole cell protein extracts were separated on 4-12% SDS-polyacrylamide gels, transferred to nitrocellulose and probed with the indicated primary antibodies. Membranes were subsequently washed and probed with the appropriate IRDye secondary antibodies (LI-COR). The signal was detected using the Odyssey Imaging System (LI-COR).
(§7) The following antibodies were used in these studies: Anti-eRF3/GSPT1: Abcam, ab126090 (Cambridge, Mass.); Anti-Ikaros: Abcam, ab191394 (Cambridge, Mass.); Anti-CK1α: Abcam, ab108296 (Cambridge, Mass.); Anti-CDK9: Santa Cruz Biotechnology, sc13130 (Dallas, Tex.); Anti-CDK16: Millipore Sigma, HPA001366 (St. Louis, Mo.); 3-actin (8H10comD10) mouse monoclonal antibody: Cell Signaling Technology, #3700 (Danvers, Mass.); IRDye 680RD Goat anti-rabbit antibody: LI-COR, 926-68071 (Lincoln, Nebr.); IRDye 800CW Goat anti-mouse antibody: LI-COR, 926-32210 (Lincoln, Nebr.).
(§8) CDK9 activities are shown in Table 4 at two different concentrations. CDK16 activities are shown in Table 5 at two different concentrations. In each of Tables 1-5, the % degradation values are reported as “A”, “B”, “C”, or “D”. “A” represents a % degradation value of less than 25% (value <25%). “B” represents a % degradation value of equal to or more than 25% and less than 50% (25%≤value<50%). “C” represents a % degradation value of equal to or more than 50% and less than 75% (50%≤value<75%). “D” represents a % degradation value of equal to or more than 75% (value ≥75%).

The next assay addresses T3, GSPT1 (Homo sapiens, UniProt P15170+Q96SW2).
T3 construct: Whole cell extracts were prepared using RIPA buffer; endogenous in cells; host or cells: MV-4-11
In words: GSPT1 degradation assay (Western blot, MV-4-11 cells). The note with it: MV4-11, 6-8 h. As for the experimental part: as §4, §5, §6, §7, §8

For a further assay, the target named is T4, CDK16 (Homo sapiens, UniProt Q00536).
T4 construct: Whole cell extracts were prepared using RIPA buffer; endogenous in cells; host or cells: MV-4-11
T4 sequence (Q00536 whole entry): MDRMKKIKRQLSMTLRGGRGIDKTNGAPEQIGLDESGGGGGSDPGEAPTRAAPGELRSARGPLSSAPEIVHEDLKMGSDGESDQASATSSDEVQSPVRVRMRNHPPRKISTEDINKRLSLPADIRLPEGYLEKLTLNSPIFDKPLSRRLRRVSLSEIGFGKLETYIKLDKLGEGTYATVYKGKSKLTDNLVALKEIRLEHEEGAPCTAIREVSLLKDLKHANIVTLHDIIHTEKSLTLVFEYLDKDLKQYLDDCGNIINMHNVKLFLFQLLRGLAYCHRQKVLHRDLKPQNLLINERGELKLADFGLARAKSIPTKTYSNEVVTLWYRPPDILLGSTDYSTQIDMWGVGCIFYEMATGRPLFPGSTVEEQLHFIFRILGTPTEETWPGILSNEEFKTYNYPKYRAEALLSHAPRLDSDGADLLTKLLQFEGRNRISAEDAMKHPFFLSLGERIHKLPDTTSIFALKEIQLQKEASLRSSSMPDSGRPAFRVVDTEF
Description: CDK16 degradation assay (Western blot, MV-4-11 cells). The note with it: 6-8 h. Put shortly: as §3

The next assay has as its target T5, CDK9 (Homo sapiens, UniProt P50750).
T5 construct: Whole cell extracts were prepared using RIPA buffer; endogenous in cells; host or cells: MV-4-11
In words: CDK9 degradation assay (Western blot, MV-4-11 cells). The note with it: 6-8 h. Put shortly: as §3

Molecules are shown by their SMILES.

As usually defined, the inhibition is the change of the read-out against control, counted positive when it falls. A word on the viability: it is a per cent measure of how many cells are alive, often set against a control. The Dmax is the largest share of the target that was removed. The low end stands for shallow degradation, the high end for deep degradation.

T3 sequence (P15170 whole entry): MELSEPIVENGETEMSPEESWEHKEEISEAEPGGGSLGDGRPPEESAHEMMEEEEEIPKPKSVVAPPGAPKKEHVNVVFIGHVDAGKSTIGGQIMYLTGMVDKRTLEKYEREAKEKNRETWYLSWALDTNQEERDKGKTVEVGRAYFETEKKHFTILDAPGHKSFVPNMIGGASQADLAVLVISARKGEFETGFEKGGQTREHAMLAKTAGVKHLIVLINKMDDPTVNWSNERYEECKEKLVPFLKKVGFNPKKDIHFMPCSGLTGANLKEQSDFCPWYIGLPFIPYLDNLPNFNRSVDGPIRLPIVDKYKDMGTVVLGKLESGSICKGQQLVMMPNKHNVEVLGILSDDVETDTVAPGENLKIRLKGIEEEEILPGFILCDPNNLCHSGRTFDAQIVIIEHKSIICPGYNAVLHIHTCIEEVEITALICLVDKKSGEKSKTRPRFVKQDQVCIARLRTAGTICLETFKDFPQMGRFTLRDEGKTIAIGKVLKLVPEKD
T3 sequence (Q96SW2 whole entry): as the sequence (Q96SW2 whole entry) above
T3 sequence (Q16531 whole entry partner): as the sequence (Q16531 whole entry partner) above
T2 sequence (P48729 whole entry): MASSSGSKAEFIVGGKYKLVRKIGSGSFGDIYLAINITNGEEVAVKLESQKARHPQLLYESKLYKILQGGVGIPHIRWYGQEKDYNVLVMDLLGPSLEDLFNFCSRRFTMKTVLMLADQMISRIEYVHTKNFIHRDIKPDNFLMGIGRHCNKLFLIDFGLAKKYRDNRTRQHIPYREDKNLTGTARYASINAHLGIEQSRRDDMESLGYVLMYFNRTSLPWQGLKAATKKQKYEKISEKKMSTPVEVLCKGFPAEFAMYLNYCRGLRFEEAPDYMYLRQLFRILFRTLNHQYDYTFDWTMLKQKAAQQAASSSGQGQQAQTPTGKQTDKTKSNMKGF
T2 sequence (Q96SW2 whole entry): as the sequence (Q96SW2 whole entry) above
T2 sequence (Q16531 whole entry partner): as the sequence (Q16531 whole entry partner) above
T5 sequence (P50750 whole entry): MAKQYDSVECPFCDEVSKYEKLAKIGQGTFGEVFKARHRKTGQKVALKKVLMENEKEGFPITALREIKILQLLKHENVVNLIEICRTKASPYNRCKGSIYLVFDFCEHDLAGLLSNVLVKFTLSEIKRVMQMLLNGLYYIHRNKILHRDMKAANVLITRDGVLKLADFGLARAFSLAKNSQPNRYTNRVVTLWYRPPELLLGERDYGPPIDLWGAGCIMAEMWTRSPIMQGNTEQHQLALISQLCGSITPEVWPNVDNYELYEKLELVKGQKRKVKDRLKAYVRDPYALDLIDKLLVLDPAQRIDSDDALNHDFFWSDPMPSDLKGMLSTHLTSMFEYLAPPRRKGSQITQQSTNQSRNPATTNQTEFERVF

With `CC(C)(C)c1cnc(CSc2cnc(NC(=O)C3CCN(CC(=O)NCCOCCNC(=O)NCc4cccc5c4CN([C@H]4CCCC(=O)NC4=O)C5=O)CC3)s2)o1` [Compound 7, (S)—N-(5-(((5-(tert-butyl)oxazol-2-yl)methyl)thio)thiazol-2-yl)-1-(1-(2-(2,7-dioxoazepan-3-yl)-1-oxoisoindolin-4-yl)-3,11-dioxo-7-oxa-2,4,10-triazadodecan-12-yl)piperidine-4-carboxamide], the inhibition at 1 µM in the assay with IL-6, in the assay on TNF-α and with IL-1β was less than 50% throughout. The viability at 1 µM with MOLM-13 cells is less than 50%. Besides, the Dmax at 1 µM at IKAROS and at CK1α was less than 25% each time.
Consider `CC(C)(C)c1cnc(CSc2cnc(NC(=O)C3CCN(CC(=O)NCCCCCNC(=O)NCc4scc5c4CN(C4CCC(=O)NC4=O)C5=O)CC3)s2)o1` (stereo not drawn) [Compound 11, N-(5-(((5-(tert-butyl)oxazol-2-yl)methyl)thio)thiazol-2-yl)-1-(2-((5-(3-((5-(2,6-dioxopiperidin-3-yl)-4-oxo-5,6-dihydro-4H-thieno[3,4-c]pyrrol-1-yl)methyl)ureido)pentyl)amino)-2-oxoethyl)piperidine-4-carboxamide], for which the viability at 1 µM in the assay on MOLM-13 cells was greater than 90%. Moreover, the Dmax at 1 µM on CK1α and on GSPT1 was 25 to 50% throughout.
As to `Cn1ncc(-c2nc(N[C@H]3CC[C@H](NCC(=O)NCCCCCNCC(=O)NCc4cc5c(s4)C(=O)N(C4CCC(=O)NC4=O)C5)CC3)ncc2Cl)c1CC1CC1` (stereo partly drawn) [Compound 30, 2-(((1r,4r)-4-((5-chloro-4-(5-(cyclopropylmethyl)-1-methyl-1H-pyrazol-4-yl)pyrimidin-2-yl)amino)cyclohexyl)amino)-N-(5-((2-(((5-(2,6-dioxopiperidin-3-yl)-6-oxo-5,6-dihydro-4H-thieno[2,3-c]pyrrol-2-yl)methyl)amino)-2-oxoethyl)amino)pentyl)acetamide], the viability at 1 µM in the assay on MOLM-13 cells was greater than 90%. Moreover, the Dmax at 1 µM at IKAROS is 50 to 75%; on CDK16 (MV4-11, 1 μM), 50 to 75%; at CDK9 (MV4-11, 1 μM), 50 to 75%; on CK1α, less than 25%; at GSPT1 it was 50 to 75%. Besides, the greatest degradation seen (Dmax) at 0.1 µM fell in the range of 25 to 50% on CDK16 (MV4-11, 0.1 μM) and 50 to 75% at CDK9 (MV4-11, 0.1 μM).
As for `Cn1ncc(-c2nc(N[C@H]3CC[C@H](NCC(=O)NCCNC(=O)NCc4cc5c(s4)C(=O)N(C4CCC(=O)NC4=O)C5)CC3)ncc2Cl)c1CC1CC1` (stereo partly drawn) [Compound 45, 2-(((1r,4r)-4-((5-chloro-4-(5-(cyclopropylmethyl)-1-methyl-1H-pyrazol-4-yl)pyrimidin-2-yl)amino)cyclohexyl)amino)-N-(2-(3-((5-(2,6-dioxopiperidin-3-yl)-6-oxo-5,6-dihydro-4H-thieno[2,3-c]pyrrol-2-yl)methyl)ureido)ethyl)acetamide], the viability at 1 µM in the assay with MOLM-13 cells was greater than 90%. In addition, the Dmax at 1 µM is 25 to 50% on IKAROS, less than 25% at CK1α and 25 to 50% on GSPT1.
In the case of `Cn1ncc(-c2nc(N[C@H]3CC[C@H](NCC(=O)NCCOCCOCCOCCNc4cccc5c4C(=O)N(C4CCC(=O)NC4=O)C5=O)CC3)ncc2F)c1CC1CC1` (stereo partly drawn) [Compound 50, 2-(((1r,4r)-4-((4-(5-(cyclopropylmethyl)-1-methyl-1H-pyrazol-4-yl)-5-fluoropyrimidin-2-yl)amino)cyclohexyl)amino)-N-(2-(2-(2-(2-((2-(2,6-dioxopiperidin-3-yl)-1,3-dioxoisoindolin-4-yl)amino)ethoxy)ethoxy)ethoxy)ethyl)acetamido], in the assay with MOLM-13 cells, the viability at 1 µM is greater than 90%. Further, the Dmax at 1 µM was no less than 75% at IKAROS, 25 to 50% on CK1α and 50 to 75% at GSPT1.
For the compound `CC(C)(C)c1cnc(CSc2cnc(NC(=O)C3CCN(CC(=O)NCCCNCC(=O)NCc4cc5c(s4)C(=O)N(C4CCC(=O)NC4=O)C5)CC3)s2)o1` (stereo not drawn) [Compound 52, N-(5-(((5-(tert-butyl)oxazol-2-yl)methyl)thio)thiazol-2-yl)-1-(2-((3-((2-(((5-(2,6-dioxopiperidin-3-yl)-6-oxo-5,6-dihydro-4H-thieno[2,3-c]pyrrol-2-yl)methyl)amino)-2-oxoethyl)amino)propyl)amino)-2-oxoethyl)piperidine-4-carboxamide], the viability at 1 µM in the assay on MOLM-13 cells was greater than 90%. Further, the Dmax at 1 µM on IKAROS is 25 to 50%; at CK1α it was 25 to 50%; at GSPT1, 50 to 75%.
Regarding `Cn1ncc(-c2nc(N[C@H]3CC[C@H](NCCOCCOCCOCCOCCNc4cccc5c4C(=O)N(C4CCC(=O)NC4=O)C5=O)CC3)ncc2Cl)c1CC1CC1` (stereo partly drawn) [Compound 64, 4-((14-(((1r,4r)-4-((5-chloro-4-(5-(cyclopropylmethyl)-1-methyl-1H-pyrazol-4-yl)pyrimidin-2-yl)amino)cyclohexyl)amino)-3,6,9,12-tetraoxatetradecyl)amino)-2-(2,6-dioxopiperidin-3-yl)isoindoline-1,3-dione], the viability at 1 µM in the assay on MOLM-13 cells is greater than 90%. Also, the greatest degradation seen (Dmax) at 1 µM at IKAROS is no less than 75%; at CK1α, 25 to 50%; at GSPT1, no less than 75%.
As to `Cn1ncc(-c2nc(N[C@H]3CC[C@H](NCCOCCOCCOCCNCc4ccc(OCc5scc6c5CN([C@H]5CCC(=O)NC5=O)C6=O)cc4)CC3)ncc2Cl)c1CC1CC1` [Compound 69, (S)-3-(1-((4-(13-(((1r,4r)-4-((5-chloro-4-(5-(cyclopropylmethyl)-1-methyl-1H-pyrazol-4-yl)pyrimidin-2-yl)amino)cyclohexyl)amino)-5,8,11-trioxa-2-azatridecyl)phenoxy)methyl)-4-oxo-4H-thieno[3,4-c]pyrrol-5(6H)-yl)piperidine-2,6-dione], the inhibition at 1 µM with IL-6 is less than 50%; with TNF-α it was 70 to 90%; in the assay with IL-1β, 70 to 90%. Further, the viability at 1 µM with MOLM-13 cells is less than 50%. Moreover, the Dmax at 1 µM on IKAROS is no less than 75%; on CK1α, 50 to 75%.
